This note sets out measurements from patent publication US8138211B2, “Isothiazolyloxyphenylamidines and their use as fungicides” (Bayer Cropscience AG, priority 2009, dated 2012).

Molecules are shown by their SMILES.

The test system of the first data set is Pyricularia oryzae.
Assay: not given
The format is in vivo. To be noted: active compound concentration of 250 ppm; rice, protective; evaluation 7 days after inoculation.
`CCN(C)C=Nc1cc(C)c(Oc2snc(C(C)(C)C)c2C#N)cc1C` [compound 6]: the efficacy was at least 80%.

Test system in the next data set: not listed separately
Kind of data set: logP by HPLC on reversed-phase columns (C18), EEC Directive 79/831 Annex V.A8. It counts as physicochemical. To be noted: pH 2.7. The method, then:
The logP values were measured in accordance with EEC Directive 79/831 Annex V.A8 by HPLC (High Performance Liquid Chromatography) on reversed-phase columns (C18), using the method below: ^[a] The determination was carried out in the acidic range at pH 2.3 using the mobile phases 0.1% aqueous phosphoric acid and acetonitrile linear gradient from 10% acetonitrile to 95% acetonitrile. ^[b] The LC-MS determination in the acidic range was carried out at pH 2.7 using the mobile phases 0.1% aqueous formic acid and acetonitrile (comprising 0.1% formic acid) linear gradient from 10% acetonitrile to 95% acetonitrile ^[c] The LC-MS determination in the neutral range was carried out at pH 7.8 using the mobile phases 0.001 molar ammonium bicarbonate solution and acetonitrile linear gradient from 10% acetonitrile to 95% acetonitrile. Calibration was carried out using unbranched alkan-2-ones (having 3 to 16 carbon atoms) with known logP values (determination of the logP values by the retention times using linear interpolation between two successive alkanones).
As for `Cc1cc(Oc2cc(-c3ccccc3)ns2)c(C)cc1N` [2,5-dimethyl-4-[(3-phenylisothiazol-5-yl)oxy]aniline], the chromatographic logP is 3.6. For the molecule `Clc1snc(-c2ccccc2)c1Cl` [4,5-dichloro-3-phenylisothiazole], the chromatographic logP was 4.44. For `Cc1cc(Oc2snc(-c3ccccc3)c2Br)c(Cl)cc1N` [4-[(4-bromo-3-phenylisothiazol-5-yl)oxy]-5-chloro-2-methylaniline], the chromatographic logP was determined as 4.41.

Molecule `Cc1cc(Oc2snc(-c3ccccc3)c2Cl)c(C)cc1N` [4-[(4-chloro-3-phenylisothiazol-5-yl)oxy]-2,5-dimethylaniline] registered a chromatographic logP of 4.22.

In turn, `Cc1cc(Oc2snc(Cc3ccc(Cl)cc3)c2C#N)c(C)cc1N` [5-(4-amino-2,5-dimethylphenoxy)-3-(4-chlorobenzyl)isothiazole-4-carbonitrile] had a chromatographic logP of 4.03. The same measure, in the same setting: the same measure for `N#Cc1c(Cc2ccc(Cl)cc2)nsc1Cl` [5-chloro-3-(4-chlorobenzyl)isothiazole-4-carbonitrile]: 3.87; for `Clc1cc(-c2ccccc2)ns1` [5-chloro-3-phenylisothiazole]: 3.82; for `CCCN(C)/C=N/c1cc(C)c(Oc2snc(C(C)(C)C)c2C#N)cc1C` [No. 4, N′-{4-[(3-tert-butyl-4-cyano-1,2-thiazol-5-yl)oxy]-2,5-dimethylphenyl}-N-methyl-N-propylimidoformamide]: 2.19. The same measure, in the same setting: the result for `CCN(C)/C=N/c1cc(C)c(Oc2snc(Cc3ccc(Cl)cc3)c2C#N)cc1C` [No. 27, N′-(4-{[3-(4-chlorobenzyl)-4-cyano-1,2-thiazol-5-yl]oxy}-2,5-dimethylphenyl)-N-ethyl-N-methylimidoformamide] reads 2.39; that for `CCN(C)/C=N/c1cc(C)c(Oc2cc(-c3ccccc3)ns2)cc1C` [No. 43, N′-{2,5-dimethyl-4-[(3-phenyl-1,2-thiazol-5-yl)oxy]phenyl}-N-ethyl-N-methylimidoformamide], 2.11. On the same count and under the same terms, the result for `CCN(C)/C=N/c1cc(C)c(Oc2snc(-c3ccccc3)c2Cl)cc1C` [No. 48, N′-{4-[(4-chloro-3-phenyl-1,2-thiazol-5-yl)oxy]-2,5-dimethylphenyl}-N-ethyl-N-methylimidoformamide] reads 2.25. Molecule `CCN(C)/C=N/c1cc(Cl)c(Oc2snc(-c3ccccc3)c2Br)cc1C` [No. 54, N′-{4-[(4-bromo-3-phenyl-1,2-thiazol-5-yl)oxy]-5-chloro-2-methylphenyl}-N-ethyl-N-methylimidoformamide] displayed a chromatographic logP of 2.26.

The same data set, now with this note: reversed-phase HPLC column (C18); LC-MS, acidic range pH 2.7, 0.1% aqueous formic acid and acetonitrile; read-out: logP(HCO2H).
Turning to `Nc1snc(-c2ccccc2)c1Br` [4-bromo-3-phenylisothiazol-5-amine], the chromatographic logP came out at 2.26.

Regarding `Clc1snc(-c2ccccc2)c1Br` [4-bromo-5-chloro-3-phenylisothiazole], the chromatographic logP worked out at 4.41. Still for that read-out and setting: the result for `Nc1snc(-c2ccccc2)c1Cl` [4-chloro-3-phenylisothiazol-5-amine] reads 2.21; that for `N#Cc1c(Cc2ccc(Cl)cc2)nsc1N` [5-amino-3-(4-chlorobenzyl)isothiazole-4-carbonitrile], 2.4. Take `CC(C)(C)c1nsc(N)c1C#N` [5-amino-3-tert-butylisothiazole-4-carbonitrile]: the chromatographic logP worked out at 2.4.

The next data set deals with Cochliobolus miyabeanus. Kind of data set: Cochliobolus test (rice)/protective. To be noted: active compound concentration of 250 ppm, protective, evaluation 4 days after inoculation.
Protocol: • Solvent: 28.5 parts by weight of acetone • Emulsifier: 1.5 parts by weight of alkylaryl polyglycol ether
One day after the treatment, the plants are inoculated with an aqueous spore suspension of Cochliobolus miyabeanus. The plants are then placed in a greenhouse at 100% relative atmospheric humidity and 25° C.
Evaluation is carried out 4 days after the inoculation.
The molecule `CCN(C)C=Nc1cc(C)c(Oc2snc(C(C)(C)C)c2C#N)cc1C` [compound 6] displayed an efficacy of at least 80%.
